Test results taken from PubChem BioAssay (NCI).
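Assay format: 96-well plates, 48-hour exposure. GI50 is the concentration that inhibits growth by half. Definition used: TGI = concentration required for complete inhibition of growth.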

System: HCT-116 colon
Assay: growth of human tumour cells (NCI), 48 h

Which results are given for COc1ccc(-c2nn(-c3cccc(Cl)c3)cc2-c2nc(N)[nH]c(=O)c2C#N)cc1?
GI50: 4.35 µM; TGI: 16.2 µM

Which results are given for O=C(CCN1CCOCC1)Nc1cccc(-n2cc(-c3ccncc3)c(-c3ccc(Cl)c(O)c3)n2)c1?
GI50: 3.04 µM; TGI: 12 µM

How did the GI50 turn out when C=C(C)[C@@H]1CC[C@]2(C)[C@H](CC[C@@H]3[C@@H]([C@@](C)(O)CCC=C(C)C)CC[C@]32C)[C@@]1(C)CCC(=O)O was run?
The GI50 was 15.4 µM.

And the TGI?
Its TGI is 29.8 µM.

What does the source list for Cn1cc(S(=O)(=O)N2CCC3=Cc4c(cnn4-c4ccc(F)cc4)C[C@]3(C(=O)c3cc(C(F)(F)F)ccn3)C2)cn1?
GI50: 11.1 µM; TGI: > 100 µM

For c1ccc(NCCSc2nc3ccccc3s2)cc1, which TGI is on record?
Its TGI is greater than 100 µM.

Oc1ccc(Oc2cnc3ccccc3n2)cc1 was tested. Which GI50 did it give?
Its GI50 is greater than 100 µM.

And the TGI?
The TGI was greater than 100 µM.

Cc1ccc2occ/c(=N\Nc3ccccc3)c2c1 was tested. Which TGI did it give?
The TGI was greater than 100 µM.

With CC(=O)NC1CONC1=O (stereo not given) as the molecule, how does the TGI read?
Its TGI is greater than 100 µM.

Which results are given for Oc1ccc(N=Nc2nccs2)c(O)c1?
GI50: 2.92 µM; TGI: 8.95 µM

COc1cc(/C=C/C(=O)Oc2ccccc2)ccc1C(=O)O/C=C/c1ccccc1 was tested. Which TGI did it give?
Its TGI is greater than 100 µM.

For COc1ccc(-c2noc(N)c2-c2cc(OC)c3c(c2)OCO3)cc1, which GI50 is on record?
Its GI50 is 2.4 µM.

And the TGI?
Its TGI is greater than 48.3 µM.

CC(Cl)CN1c2ccccc2Sc2ccc(Cl)cc21 (stereo not given) was tested. Which TGI did it give?
Its TGI is greater than 10 µM.

With NCCCn1c2c(c3ccccc3c1=O)C(=O)c1ccccc1-2 as the molecule, how does the GI50 read?
Its GI50 is 0.259 µM.

O=C1c2ccccc2C(=O)c2c(NCCN=Cc3ccccc3O)cccc21 was tested. Which GI50 did it give?
Its GI50 is 3.64 µM.

What about the TGI of the same molecule?
Its TGI is 15.3 µM.

Which TGI does the source give for Oc1ccc(/C=C/c2cc(O)cc3c2C(c2cc(O)cc(O)c2)C(c2ccc(O)c(O)c2)O3)cc1 (stereo not given) here?
Its TGI is greater than 100 µM.

What does the source list for CC1(C)N=C(N)N=C(N)N1c1cccc(OCCOc2cccc([N+](=O)[O-])c2)c1?
GI50: 0.777 µM; TGI: > 100 µM

With COc1ccc(/C=C/c2cnccn2)cc1OC as the molecule, how does the TGI read?
Its TGI is greater than 10 µM.

For O=C(NC1CCCCC1)c1ccc(Nc2ncnc3c2cnn3-c2ccccc2)cc1, which GI50 is on record?
Its GI50 is 4.01 µM.

And the TGI?
The TGI was greater than 100 µM.

What does the source list for C=CCn1c(SCC(=O)Nc2ccc(C(=O)/C=C/c3cc(OC)c(OC)c(OC)c3)cc2)nnc1-c1ccc(OC)cc1?
GI50: 0.223 µM; TGI: 0.52 µM

With C=C1C(O)C2C(=C(C)C13CC3)C(=O)C(C)(C)C2OC (stereo not given) as the molecule, how does the GI50 read?
Its GI50 is greater than 100 µM.

What about the TGI of the same molecule?
The TGI was greater than 100 µM.

What does the source list for COc1cc(C(=O)O[C@H](C(N)=O)[C@]2(C)CO2)c2cccc(C)c2c1?
GI50: 0.431 µM; TGI: 2.32 µM

What does the source list for NCCCOc1cc(Cl)ccc1NC(=O)c1cc2ccccc2cc1OCCCN?
GI50: 1.37 µM; TGI: 2.8 µM

System: M14 melanoma
Assay: growth of human tumour cells (NCI), 48 h

COc1ccc(-c2nn(-c3cccc(Cl)c3)cc2-c2nc(N)[nH]c(=O)c2C#N)cc1 was tested. Which GI50 did it give?
Its GI50 is 3.25 µM.

What about the TGI of the same molecule?
Its TGI is 34 µM.

For O=C(CCN1CCOCC1)Nc1cccc(-n2cc(-c3ccncc3)c(-c3ccc(Cl)c(O)c3)n2)c1, which GI50 is on record?
Its GI50 is 1.53 µM.

And the TGI?
Its TGI is 4.16 µM.

Which GI50 does the source give for C=C(C)[C@@H]1CC[C@]2(C)[C@H](CC[C@@H]3[C@@H]([C@@](C)(O)CCC=C(C)C)CC[C@]32C)[C@@]1(C)CCC(=O)O here?
The GI50 was 16.4 µM.

And the TGI?
The TGI was 36.1 µM.

Which results are given for Cn1cc(S(=O)(=O)N2CCC3=Cc4c(cnn4-c4ccc(F)cc4)C[C@]3(C(=O)c3cc(C(F)(F)F)ccn3)C2)cn1?
GI50: > 100 µM; TGI: > 100 µM

c1ccc(NCCSc2nc3ccccc3s2)cc1 was tested. Which TGI did it give?
The TGI was greater than 100 µM.

With Oc1ccc(Oc2cnc3ccccc3n2)cc1 as the molecule, how does the GI50 read?
Its GI50 is greater than 100 µM.

What about the TGI of the same molecule?
Its TGI is greater than 100 µM.

How did the TGI turn out when Cc1ccc2occ/c(=N\Nc3ccccc3)c2c1 was run?
The TGI was greater than 100 µM.

With CC(=O)NC1CONC1=O (stereo not given) as the molecule, how does the TGI read?
The TGI was greater than 100 µM.

What does the source list for Oc1ccc(N=Nc2nccs2)c(O)c1?
GI50: 11 µM; TGI: 48.4 µM

How did the TGI turn out when COc1cc(/C=C/C(=O)Oc2ccccc2)ccc1C(=O)O/C=C/c1ccccc1 was run?
The TGI was greater than 100 µM.

With COc1ccc(-c2noc(N)c2-c2cc(OC)c3c(c2)OCO3)cc1 as the molecule, how does the GI50 read?
Its GI50 is 1.3 µM.

And the TGI?
The TGI was 7.02 µM.

How did the TGI turn out when CC(Cl)CN1c2ccccc2Sc2ccc(Cl)cc21 (stereo not given) was run?
Its TGI is greater than 10 µM.

NCCCn1c2c(c3ccccc3c1=O)C(=O)c1ccccc1-2 was tested. Which GI50 did it give?
The GI50 was 0.628 µM.

What about the TGI of the same molecule?
Its TGI is 3.47 µM.

How did the GI50 turn out when O=C1c2ccccc2C(=O)c2c(NCCN=Cc3ccccc3O)cccc21 was run?
Its GI50 is 7.44 µM.

What about the TGI of the same molecule?
The TGI was 32.7 µM.

For Oc1ccc(/C=C/c2cc(O)cc3c2C(c2cc(O)cc(O)c2)C(c2ccc(O)c(O)c2)O3)cc1 (stereo not given), which TGI is on record?
The TGI was greater than 100 µM.

With CC1(C)N=C(N)N=C(N)N1c1cccc(OCCOc2cccc([N+](=O)[O-])c2)c1 as the molecule, how does the GI50 read?
The GI50 was 14.4 µM.

And the TGI?
Its TGI is greater than 100 µM.

For COc1ccc(/C=C/c2cnccn2)cc1OC, which TGI is on record?
The TGI was greater than 10 µM.

Which GI50 does the source give for O=C(NC1CCCCC1)c1ccc(Nc2ncnc3c2cnn3-c2ccccc2)cc1 here?
The GI50 was 18.3 µM.

And the TGI?
Its TGI is greater than 100 µM.

Which results are given for C=CCn1c(SCC(=O)Nc2ccc(C(=O)/C=C/c3cc(OC)c(OC)c(OC)c3)cc2)nnc1-c1ccc(OC)cc1?
GI50: 0.404 µM; TGI: 2.58 µM

Which GI50 does the source give for COc1cc(C(=O)O[C@H](C(N)=O)[C@]2(C)CO2)c2cccc(C)c2c1 here?
Its GI50 is 2.13 µM.

What about the TGI of the same molecule?
Its TGI is 4.84 µM.

System: IGROV1 ovarian
Assay: growth of human tumour cells (NCI), 48 h

COc1ccc(-c2nn(-c3cccc(Cl)c3)cc2-c2nc(N)[nH]c(=O)c2C#N)cc1 was tested. Which GI50 did it give?
The GI50 was 3.01 µM.

And the TGI?
The TGI was 18.1 µM.

Which GI50 does the source give for O=C(CCN1CCOCC1)Nc1cccc(-n2cc(-c3ccncc3)c(-c3ccc(Cl)c(O)c3)n2)c1 here?
Its GI50 is 3.52 µM.

And the TGI?
Its TGI is 21.5 µM.

Which results are given for C=C(C)[C@@H]1CC[C@]2(C)[C@H](CC[C@@H]3[C@@H]([C@@](C)(O)CCC=C(C)C)CC[C@]32C)[C@@]1(C)CCC(=O)O?
GI50: 18.7 µM; TGI: 38.4 µM

Which results are given for Cn1cc(S(=O)(=O)N2CCC3=Cc4c(cnn4-c4ccc(F)cc4)C[C@]3(C(=O)c3cc(C(F)(F)F)ccn3)C2)cn1?
GI50: 23.3 µM; TGI: > 100 µM

With c1ccc(NCCSc2nc3ccccc3s2)cc1 as the molecule, how does the TGI read?
Its TGI is greater than 100 µM.

With Oc1ccc(Oc2cnc3ccccc3n2)cc1 as the molecule, how does the GI50 read?
Its GI50 is greater than 100 µM.

And the TGI?
The TGI was greater than 100 µM.

Which TGI does the source give for Cc1ccc2occ/c(=N\Nc3ccccc3)c2c1 here?
The TGI was greater than 100 µM.

CC(=O)NC1CONC1=O (stereo not given) was tested. Which TGI did it give?
Its TGI is greater than 100 µM.

With Oc1ccc(N=Nc2nccs2)c(O)c1 as the molecule, how does the GI50 read?
The GI50 was 4.14 µM.

What about the TGI of the same molecule?
Its TGI is 15.2 µM.

How did the TGI turn out when COc1cc(/C=C/C(=O)Oc2ccccc2)ccc1C(=O)O/C=C/c1ccccc1 was run?
The TGI was greater than 100 µM.

COc1ccc(-c2noc(N)c2-c2cc(OC)c3c(c2)OCO3)cc1 was tested. Which GI50 did it give?
The GI50 was 6.8 µM.

What about the TGI of the same molecule?
Its TGI is greater than 100 µM.

Which TGI does the source give for CC(Cl)CN1c2ccccc2Sc2ccc(Cl)cc21 (stereo not given) here?
Its TGI is greater than 10 µM.

Which results are given for NCCCn1c2c(c3ccccc3c1=O)C(=O)c1ccccc1-2?
GI50: 0.34 µM; TGI: > 64.4 µM
